Patent US8563730B2, “Pyrazole and fused pyrazole glucokinase activators” (Takeda San Diego, Inc., priority 2008, dated 2013)
Where a name gives a salt, the structure may show the parent alone. Read-outs that look alike come from different tables or passages of the source.

Target: T1, GK (glucokinase, residues 12-465) (Homo sapiens, UniProt P35557)
T1 construct: I.D. No. 1 corresponds to residues 12-465 of glucokinase; made in house; host or cells: DH10b-T1r E. coli
T1 sequence (P35557 with tags, fused parts or gaps isoform P35557-2): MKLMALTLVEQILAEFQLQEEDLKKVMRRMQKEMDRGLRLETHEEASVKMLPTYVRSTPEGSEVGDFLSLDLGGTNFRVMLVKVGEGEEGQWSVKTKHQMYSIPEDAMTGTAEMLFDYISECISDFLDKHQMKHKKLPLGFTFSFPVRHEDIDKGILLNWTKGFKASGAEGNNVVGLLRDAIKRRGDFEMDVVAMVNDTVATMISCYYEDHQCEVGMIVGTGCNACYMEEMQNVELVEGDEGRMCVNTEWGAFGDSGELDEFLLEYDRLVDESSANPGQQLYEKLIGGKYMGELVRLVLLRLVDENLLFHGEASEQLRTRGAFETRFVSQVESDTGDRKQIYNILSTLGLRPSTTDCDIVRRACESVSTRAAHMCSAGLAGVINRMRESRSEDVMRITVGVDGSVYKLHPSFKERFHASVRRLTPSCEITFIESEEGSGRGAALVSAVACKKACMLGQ
Experiment: enzymatic glucokinase activity assay (ATP consumption, KinaseGlo luminescence)
Format: biochemical
Details: 5 μM ATP, 5 mM Glucose, reported as bins; for EC50: Kact = concentration that displays 50% of the maximal increase in GK activity, 60 min, room temperature, read-out: pKact
Procedure, shortened: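 E. coli-expressed recombinant GK purified by two anion-exchange steps. Reaction in 25 mM Hepes pH 7.2, 10 mM MgCl2, 1 mM DTT, 5 μM ATP, 5 mM glucose, 2% DMSO, 60 min at room temperature. ATP consumption quantified by KinaseGlo luminescence; pKact and % ACTmax derived by non-linear curve fitting.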

[1] = calculated maximal gain in GK enzyme activity at a saturating concentration of the compound, read-out: % ACTmax

EC50 [µM] | Emax [1] [%] | Structure (SMILES) | % ACTmax (calculated maximal gain in GK enzyme activity at a saturating concentration of the compound) | Emax (read-out: % ACTmax, calculated maximal gain in GK enzyme activity at a saturating concentration of the compound) [%]
≤ 0.316 | 101 to 105 | O=C1CC[C@H](C[C@H](C(=O)Nc2ncc(Cl)s2)n2ncc3c(S(=O)(=O)C4CC4)cccc32)C1 [Compound 114, (R)-N-(5-chlorothiazol-2-yl)-2-(4-(cyclopropylsulfonyl)-1H-indazol-1-yl)-3-((R)-3-oxocyclopentyl)propanamide] |  | 
≤ 0.316 | 101 to 105 | COc1ccc2c(cnn2[C@@H](CC2CCOCC2)C(=O)Nc2ccn(C)n2)c1S(=O)(=O)C1CC1 [Compound 109, (S)-2-(4-(cyclopropylsulfonyl)-5-methoxy-1H-indazol-1-yl)-N-(1-methyl-1H-pyrazol-3-yl)-3-(tetrahydro-2H-pyran-4-yl)propanamide] |  | 
1.58 to 3.16 | ≤ 90 | CS(=O)(=O)c1cccc2c1cnn2C(CC1CCOCC1)C(=O)Nc1ncc(F)s1 (stereo not drawn) [Compound 41, N-(5-fluorothiazol-2-yl)-2-(4-(methylsulfonyl)-1H-indazole-1-yl)-3-(tetrahydro-2H-pyran-4-yl)propanamide] |  | 
≤ 0.316 | 90 to 100 | N#Cc1cc(S(=O)(=O)C2CC2)c2cnn(C(CC3CCOCC3)C(=O)Nc3ncc(F)s3)c2c1 (stereo not drawn) [Compound 120, 2-(6-cyano-4-(cyclopropylsulfonyl)-1H-indazol-1-yl)-N-(5-fluorothiazol-2-yl)-3-(tetrahydro-2H-pyran-4-yl)propanamide] |  | 
0.398 to 1.26 | 90 to 100 | O=C(Nc1ncc(F)s1)[C@H](CC1CCOCC1)n1ncc2c(S(=O)(=O)C3CC3)ccnc21 [Compound 138, (S)-2-(4-(cyclopropylsulfonyl)-1H-pyrazol[3,4-b]pyridin-1-yl)-N-(5-fluorothiazol-2-yl)-3-(tetrahydro-2H-pyran-4-yl)propanamide] |  | 
3.98 to 12.6 | 101 to 105 | O=C(Nc1ncc(F)s1)[C@@H](CC1CCOCC1)n1ncc2c(S(=O)(=O)C3CC3)cccc21 [Compound 68, (R)-2-(4-(cyclopropylsulfonyl)-1H-indazol-1-yl)-N-(5-fluorothiazol-2-yl)-3-(tetrahydro-2H-pyran-4-yl)propanamide] |  | 
≤ 0.316 | 90 to 100 | O=C(Nc1ncc(F)s1)[C@H](CC1CCOCC1)n1ncc2c(S(=O)(=O)C3CC3)cc(Cl)cc21 [Compound 141, (S)-2-(6-chloro-4-(cyclopropylsulfonyl)-1H-indazol-1-yl)-N-(5-fluorothiazol-2-yl)-3-(tetrahydro-2H-pyran-4-yl)propanamide] |  | 
1.58 to 3.16 | ≥ 111 | O=C(Nc1ncc(F)s1)[C@H](CC1CCCC1)n1cc(S(=O)(=O)C2CC2)cn1 [Compound 36, (S)-3-cyclopentyl-2-(4-(cyclopropylsulfonyl)-1H-pyrazol-1-yl)-N-(5-fluorothiazol-2-yl)propanamide] |  | 
≤ 0.316 | 106 to 110 | COc1ccc2c(cnn2[C@@H](CC2CCOCC2)C(=O)Nc2ncc(F)s2)c1S(=O)(=O)C1CC1 [Compound 82, (S)-2-(4-(cyclopropylsulfonyl)-5-methoxy-1H-indazol-1-yl)-N-(5-fluorothiazol-2-yl)-3-(tetrahydro-2H-pyran-4-yl)propanamide] |  | 
3.98 to 12.6 | 90 to 100 | Cn1ccc(NC(=O)[C@@H](CC2CCOCC2)n2ncc3c(S(=O)(=O)C4CC4)c(F)ccc32)n1 [Compound 166, (R)-2-(4-(cyclopropylsulfonyl)-5-fluoro-1H-indazol-1-yl)-N-(1-methyl-1H-pyrazol-3-yl)-3-(tetrahydro-2H-pyran-4-yl)propanamide] |  | 
1.58 to 3.16 | ≥ 111 | O=C(Nc1ncc(Cl)s1)[C@H](CC1CCOCC1)n1cc(S(=O)(=O)C2CC2)cn1 [Compound 42, (S)-N-(5-chlorothiazol-2-yl)-2-(4-(cyclopropylsulfonyl)-1H-pyrazol-1-yl)-3-(tetrahydro-2H-pyran-4-yl)propanamide] |  | 
1.58 to 3.16 | 90 to 100 | Cn1ccc(NC(=O)C(CC2CCOCC2)n2ncc3c(S(=O)(=O)C4CC4)cc(F)cc32)n1 (stereo not drawn) [Compound 104, 2-(4-(cyclopropylsulfonyl)-6-fluoro-1H-indazol-1-yl)-N-(1-methyl-1H-pyrazol-3-yl)-3-(tetrahydro-2H-pyran-4-yl)propanamide] |  | 
3.98 to 12.6 | ≤ 90 | O=C(Nc1ncc(F)s1)C(CC1CCOCC1)n1cc2c(S(=O)(=O)C3CC3)c(F)ccc2n1 (stereo not drawn) [Compound 148, 2-(4-(cyclopropylsulfonyl)-5-fluoro-2H-indazol-2-yl)-N-(5-fluorothiazol-2-yl)-3-(tetrahydro-2H-pyran-4-yl)propanamide] |  | 
≥ 15.8 | 101 to 105 | O=C(Nc1ncc(F)s1)[C@@H](CC1CCOCC1)n1ncc2c(S(=O)(=O)C3CC3)cc(O)cc21 [Compound 77, (R)-2-(4-(cyclopropylsulfonyl)-6-hydroxy-1H-indazol-1-yl)-N-(5-fluorothiazol-2-yl)-3-(tetrahydro-2H-pyran-4-yl)propanamide] |  | 
≤ 0.316 | ≥ 111 | O=C(Nc1ncc(Cl)s1)[C@H](CC1CCOCC1)n1ncc2c(S(=O)(=O)C3CC3)cccc21 [Compound 64, (S)-N-(5-chlorothiazol-2-yl)-2-(4-(cyclopropylsulfonyl)-1H-indazol-1-yl)-3-(tetrahydro-2H-pyran-4-yl)propanamide] |  | 
≥ 15.8 | ≤ 90 | Cn1ccc(NC(=O)C(CC2CCOCC2)n2ncc3c(S(=O)(=O)C4CC4)cc(N)nc32)n1 (stereo not drawn) [Compound 170, 2-(6-amino-4-(cyclopropylsulfonyl)-1H-pyrazolo[3,4-b]pyridin-1-yl)-N-(1-methyl-1H-pyrazol-3-yl)-3-(tetrahydro-2H-pyran-4-yl)propanamide] |  | 
0.398 to 1.26 | ≥ 111 | Cc1ccc2c(cnn2C(CC2CCOCC2)C(=O)Nc2cnccn2)c1S(=O)(=O)C1CC1 (stereo not drawn) [Compound 157, 2-(4-(cyclopropylsulfonyl)-5-methyl-1H-indazol-1-yl)-N-(pyrazin-2-yl)-3-(tetrahydro-2H-pyran-4-yl)propanamide] |  | 
3.98 to 12.6 | ≤ 90 | N#Cc1cnc(NC(=O)[C@@H](CC2CCOCC2)n2ncc3c(S(=O)(=O)C4CC4)cccc32)s1 [Compound 137, (R)-N-(5-cyanothiazol-2-yl)-2-(4-(cyclopropylsulfonyl)-1H-indazol-1-yl)-3-(tetrahydro-2H-pyran-4-yl)propanamide] |  | 
3.98 to 12.6 | ≤ 90 | COc1cc(S(=O)(=O)C2CC2)c2cnn([C@H](CC3CCOCC3)C(=O)Nc3ncc(F)s3)c2c1 [Compound 129, (R)-2-(4-(cyclopropylsulfonyl)-6-methoxy-1H-indazol-1-yl)-N-(5-fluorothiazol-2-yl)-3-(tetrahydro-2H-pyran-4-yl)propanamide] |  | 

Structure (SMILES) | EC50 [µM] | Emax [1] [%] | % ACTmax (calculated maximal gain in GK enzyme activity at a saturating concentration of the compound) | Emax (read-out: % ACTmax, calculated maximal gain in GK enzyme activity at a saturating concentration of the compound) [%]
O=C(Nc1cnccn1)C(CC1CCOCC1)n1ncc2c(S(=O)(=O)C3CC3)cncc21 (stereo not drawn) [20 (TFA Salt), 2-(4-(cyclopropylsulfonyl)-1H-pyrazolo[3,4-c]pyridin-1-yl)-N-(pyrazin-2-yl)-3-(tetrahydro-2H-pyran-4-yl)propanamide] | 1.58 to 3.16 |  | 106-110% | 
O=C(Nc1ncc(Cl)s1)C(CC1CCOCC1)n1cc(S(=O)(=O)C2CC2)cn1 (stereo not drawn) [Compound 4, N-(5-chlorothiazol-2-yl)-2-(4-(cyclopropylsulfonyl)-1H-pyrazol-1-yl)-3-(tetrahydro-2H-pyran-4-yl)propanamide] | 3.98 to 12.6 |  |  | 101 to 105
